Reference: paper PMC6522927, “Fibrate-based N-acylsulphonamides targeting carbonic anhydrases: synthesis, biochemical evaluation, and docking studies” (Journal of Enzyme Inhibition and Medicinal Chemistry, 2019)
“Also recorded” adds a separate entry of the source.

Tests used:
hCA II = molecular target: T1, hCA II (Homo sapiens, UniProt P00918); test: stopped-flow CO2 hydrase assay, hCA II; type: biochemical; settings: for inhibition of hCA II (in words): result stated in words; for Ki: recombinant hCA II, CO2 hydration, 15 min preincubation
T1 construct: made in house
Protocol: (§1) An Applied Photophysics stopped-flow instrument has been used for assaying the CA catalysed CO2 hydration activity. Phenol red (0.2 mM) has been used as indicator, working at the absorbance maximum of 557 nm, with 20 mM Hepes (pH 7.5, for α-CAs) as buffer, and 20 mM NaClO4 (for maintaining constant the ionic strength), following the initial rates of the CA-catalysed CO2 hydration reaction for a period of 10–100 s. The CO2 concentrations ranged from 1.7 to 17 mM for the determination of the kinetic parameters and inhibition constants. In particular, CO2 was bubbled in distilled deionised water for 30 min till saturation. A CO2 kit (Sigma, Milan, Italy) was used to measure the concentration in serially diluted solutions from the saturated one at the same temperature. For each inhibitor at least six traces of the initial 5–10% of the reaction have been used for determining the initial velocity. The uncatalysed rates were determined in the same manner and subtracted from the total observed rates. Stock solutions of inhibitor ([…]) were prepared in distilled–deionised water and dilutions up to 0.1 nM were done thereafter with the assay buffer. Inhibitor and enzyme solutions were preincubated together for 15 min at room temperature prior to assay, in order to allow for the formation of the E–I complex or for the eventual active site mediated hydrolysis of the inhibitor. The inhibition constants were obtained by non-linear least-squares methods using PRISM 3 and the Cheng–Prusoff equation and represent the average from at least three different determinations. All recombinant CA isoforms were obtained in-house as previously reported[24]^,[25].

hCA IX = molecular target: T2, hCA IX (Homo sapiens, UniProt Q16790); test: stopped-flow CO2 hydrase assay, hCA IX; type: biochemical; settings: for inhibition of hCA IX (in words): result stated in words
T2 construct: made in house
Protocol: as §1

hCA I = molecular target: T3, hCA I (Homo sapiens, UniProt P00915); test: stopped-flow CO2 hydrase assay, hCA I; type: biochemical; settings: for inhibition of hCA I (in words): result stated in words; for Ki: recombinant hCA I, CO2 hydration, 15 min preincubation
T3 construct: made in house
Protocol: as §1

hCA XII = molecular target: T4, hCA XII (Homo sapiens, UniProt O43570); test: stopped-flow CO2 hydrase assay, hCA XII; type: biochemical; settings: result stated in words
T4 construct: made in house
Protocol: as §1

T4 sequence (O43570 25-354): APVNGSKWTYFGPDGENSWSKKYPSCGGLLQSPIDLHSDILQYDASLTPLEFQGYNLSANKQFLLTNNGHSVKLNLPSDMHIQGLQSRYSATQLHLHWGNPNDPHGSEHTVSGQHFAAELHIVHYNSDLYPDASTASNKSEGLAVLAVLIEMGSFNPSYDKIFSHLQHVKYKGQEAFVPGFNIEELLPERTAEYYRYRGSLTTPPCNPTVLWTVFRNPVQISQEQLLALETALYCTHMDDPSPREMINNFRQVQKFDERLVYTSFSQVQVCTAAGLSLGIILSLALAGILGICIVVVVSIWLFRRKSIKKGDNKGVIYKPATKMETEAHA
T3 sequence (P00915 whole entry): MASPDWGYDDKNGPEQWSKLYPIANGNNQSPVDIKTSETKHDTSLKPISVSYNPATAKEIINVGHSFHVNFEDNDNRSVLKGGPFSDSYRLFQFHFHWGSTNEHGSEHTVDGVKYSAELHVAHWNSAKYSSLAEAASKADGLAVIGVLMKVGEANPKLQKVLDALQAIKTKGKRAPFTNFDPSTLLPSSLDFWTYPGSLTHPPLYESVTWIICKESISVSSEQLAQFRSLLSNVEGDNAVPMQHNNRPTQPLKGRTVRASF

## CCCC(Oc1ccc(C(=O)c2ccccc2)cc1)C(=O)NS(=O)(=O)c1ccccc1 (stereo not shown) [Compound 27, 2-(4-Benzoylphenoxy)-N-(phenylsulphonyl)pentanamide]
hCA II
  inhibition of hCA II (in words): did not induce a sensible inhibition
hCA IX
  inhibition of hCA IX (in words): did not induce a sensible inhibition
hCA I
  inhibition of hCA I (in words): did not induce a sensible inhibition
hCA XII
  inhibition of hCA XII (in words): did not induce a sensible inhibition

## CC(C)(Oc1ccc(C(=O)c2ccc(Cl)cc2)cc1)C(=O)NS(=O)(=O)c1ccccc1 [Compound 18]
hCA II
  Ki: 1300 nM
  inhibition of hCA II (in words): moderate inhibition
hCA IX; recombinant hCA IX, CO2 hydration, 15 min preincubation
  Ki: 440 nM
hCA IX
  inhibition of hCA IX (in words): moderate inhibition; also recorded: submicromolar
hCA I
  Ki: < 10000 nM
  inhibition of hCA I (in words): moderate inhibition; also recorded: submicromolar

## CC(C)(Oc1ccc(C(=O)c2ccc(Cl)cc2)cc1)C(=O)NS(=O)(=O)c1ccc(Cl)cc1 [Compound 21, 2-[4–(4-Chlorobenzoyl)phenoxy]-N-[(4-chlorophenyl)sulfonyl]-2-methylpropanamide]
hCA I
  Ki: < 10000 nM
other
  melting point: 204 to 205 °C (dec.)

## Cc1ccc(C)c(OCCCC(C)(C)C(=O)NS(=O)(=O)c2ccccc2)c1 [Compound 16]
hCA II
  inhibition of hCA II (in words): completely inactive
hCA IX
  inhibition of hCA IX (in words): completely inactive
hCA I
  inhibition of hCA I (in words): completely inactive
hCA XII
  inhibition of hCA XII (in words): completely inactive

## CC(=O)Nc1ccc(S(=O)(=O)NC(=O)C(C)(C)Oc2ccc(C(=O)c3ccc(Cl)cc3)cc2)cc1 [Compound 23, N-{[4-(acetylamino)phenyl]sulfonyl}-2-[4–(4-chlorobenzoyl)phenoxy]-2-methylpropanamide]
other
  melting point: 226 to 228 °C

## CC(C)(Oc1ccc(C(=O)c2ccc(Cl)cc2)cc1)C(=O)NS(=O)(=O)c1ccc([N+](=O)[O-])cc1 [Compound 22, 2-[4–(4-Chlorobenzoyl)phenoxy]-2-methyl-N-[(4-nitrophenyl)sulfonyl]propanamide]
hCA II
  Ki: 16 nM
other
  melting point: 196 to 198 °C

## COc1ccc(S(=O)(=O)NC(=O)C(C)(C)Oc2ccc(C(=O)c3ccc(Cl)cc3)cc2)cc1 [Compound 20, 2-[4-(4-Chlorobenzoyl)phenoxy]-N-[(4-methoxyphenyl)sulfonyl]-2-methylpropanamide]
other
  melting point: 188 to 189 °C

## O=C(COc1ccc(C(=O)c2ccccc2)cc1)NS(=O)(=O)c1ccccc1 [Compound 26, 2-(4-Benzoylphenoxy)-N-(phenylsulphonyl)acetamide]
hCA II
  inhibition of hCA II (in words): did not induce a sensible inhibition
hCA IX
  inhibition of hCA IX (in words): did not induce a sensible inhibition
hCA I
  inhibition of hCA I (in words): did not induce a sensible inhibition
other
  melting point: 61 to 62 °C
hCA XII
  inhibition of hCA XII (in words): did not induce a sensible inhibition

## CC(C)(Oc1ccc(CCNC(=O)c2ccc(Cl)cc2)cc1)C(=O)NS(=O)(=O)c1ccccc1 [Compound 17]
hCA II
  inhibition of hCA II (in words): moderate inhibition
hCA IX
  inhibition of hCA IX (in words): moderate inhibition
hCA I
  inhibition of hCA I (in words): moderate inhibition

## CC(C)(Oc1ccc(Cl)cc1)C(=O)NS(=O)(=O)c1ccccc1 [Compound 15]
hCA II
  inhibition of hCA II (in words): completely inactive
hCA IX
  inhibition of hCA IX (in words): completely inactive
hCA I
  inhibition of hCA I (in words): completely inactive
hCA XII
  inhibition of hCA XII (in words): completely inactive

## CC(C)(Oc1ccc(C(=O)c2ccc(Cl)cc2)cc1)C(=O)NS(=O)(=O)c1ccc(NC(=O)c2ccccc2)cc1 [Compound 24, N-{4-[({2-[4–(4-chlorobenzoyl)phenoxy]-2-methylpropanoyl}amino)sulfonyl]phenyl} benzamide]
hCA II
  Ki: 77 nM
  inhibition of hCA II (in words): marked effect
hCA I
  Ki: < 10000 nM
  inhibition of hCA I (in words): marked effect
other
  melting point: 232 to 234 °C
